ChEMBL document CHEMBL1134109, “Biological evaluation of hepatitis C virus helicase inhibitors” (Bioorg Med Chem Lett, 2001)

biological target: NS3 (Hepatitis C virus) (UniProt A3EZJ3); test: Inhibitory activity against hepatitis C virus helicase at 25 ug/mL; details: Hepacivirus hominis
Sequence (A3EZJ3 as listed by the source): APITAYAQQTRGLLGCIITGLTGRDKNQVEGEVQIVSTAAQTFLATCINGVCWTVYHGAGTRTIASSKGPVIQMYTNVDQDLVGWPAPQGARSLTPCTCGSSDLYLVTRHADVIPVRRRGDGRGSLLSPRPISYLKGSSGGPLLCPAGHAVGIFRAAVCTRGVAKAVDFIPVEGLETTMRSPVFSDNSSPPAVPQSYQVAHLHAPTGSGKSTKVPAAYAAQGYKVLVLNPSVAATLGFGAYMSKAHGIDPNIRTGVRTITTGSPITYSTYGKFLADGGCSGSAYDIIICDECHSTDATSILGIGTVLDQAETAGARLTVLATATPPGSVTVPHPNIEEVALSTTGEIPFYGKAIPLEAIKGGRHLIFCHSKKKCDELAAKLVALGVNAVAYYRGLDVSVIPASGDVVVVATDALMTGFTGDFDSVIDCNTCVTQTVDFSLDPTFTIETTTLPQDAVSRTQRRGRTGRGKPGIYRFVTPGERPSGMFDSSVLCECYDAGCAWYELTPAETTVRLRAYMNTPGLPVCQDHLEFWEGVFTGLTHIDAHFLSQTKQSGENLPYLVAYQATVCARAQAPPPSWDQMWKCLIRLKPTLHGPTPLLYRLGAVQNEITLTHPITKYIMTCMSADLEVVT

inhibition [%] | SMILES
75 | O=C(/C=C/C(=O)Nc1ccc(-c2nc3ccccc3[nH]2)cc1)Nc1ccc(-c2nc3ccccc3[nH]2)cc1
6 | O=C(CCCCCCCC(=O)Nc1nc2ccccc2[nH]1)Nc1nc2ccccc2[nH]1
6 | O=C(CCCCCCC(=O)Nc1nc2ccccc2[nH]1)Nc1nc2ccccc2[nH]1
14 | Cc1ccc2nc(-c3ccc(NC(=O)CCC(=O)Nc4ccc(-c5nc6ccc(C)cc6s5)cc4)cc3)sc2c1
75 | O=C(Nc1ccc(-c2nc3ccccc3[nH]2)cc1)c1ccc(C(=O)Nc2ccc(-c3nc4ccccc4[nH]3)cc2)cc1
28 | O=C(NCCCCCCNC(=O)Nc1ccc(-c2nc3ccccc3[nH]2)cc1)Nc1ccc(-c2nc3ccccc3[nH]2)cc1
75 | O=C(CCCCC(=O)Nc1ccc(-c2nc3ccccc3[nH]2)cc1)Nc1ccc(-c2nc3ccccc3[nH]2)cc1
6 | O=C(CCCCC(=O)Nc1nc2ccccc2[nH]1)Nc1nc2ccccc2[nH]1
10 | O=C(CCCCC(=O)Nc1nccs1)Nc1nccs1
75 | O=C(CCCCCCC(=O)Nc1ccc(-c2nc3ccccc3[nH]2)cc1)Nc1ccc(-c2nc3ccccc3[nH]2)cc1
6 | O=C(CCC(=O)Nc1nc2ccccc2[nH]1)Nc1nc2ccccc2[nH]1
20 | O=C(NCCCCNC(=O)Nc1ccc(-c2nc3ccccc3[nH]2)cc1)Nc1ccc(-c2nc3ccccc3[nH]2)cc1
